Key:
Format in all cases: in vivo
Set-up in all cases: key: 0 is no effect; 10 is complete control
[1] = test system: crabgrass (Digitaria sanguinalis); test: Test B pre-/postemergence
From the text: (§1) Seeds of bedstraw (Galium aparine), blackgrass (Alopecurus myosuroides), broadleaf signalgrass (Brachiaria decumbens), cocklebur (Xanthium strumarium), corn (Zea mays), crabgrass (Digitaria sanguinalis), giant foxtail (Setaria faberii), lambsquarters (Chenopodium album), momingglory (Ipomoea hederacea), pigweed (Amaranthus retroflexus), rape (Brassica napus), soybean (Glycine max), sugar beet (Beta vulgaris), velvetleaf (Abutilon theophrasti), wheat (Triticum aestivum), wild oat (Avena fatua) and purple nutsedge (Cyperus rotundus) tubers were planted and treated preemergence with test chemicals formulated in a non-phytotoxic solvent mixture which included a surfactant.
(§2) At the same time, these crop and weed species were also treated with postemergence applications of test chemicals formulated in the same manner. Plants ranged in height from 2 to 18 cm (1- to 4-leaf stage) for postemergence treatments. Plant species in the flood test consisted of rice (Oryza sativa), smallflower flatsedge (Cyperus difformis), duck salad (Heteranthera limosa) and bamyardgrass (Echinochloa crus-galli) grown to the 2-leaf stage for testing. Treated plants and controls were maintained in a greenhouse for twelve to sixteen days, after which all species were compared to controls and visually evaluated. Plant response ratings, summarized in Table B, are based on a scale of 0 to 10 where 0 is no effect and 10 is complete control. A dash (−) response means no test result.

rape (Brassica napus) = test: Test B pre-/postemergence
From the text: as §1, §2

[2] = test system: wheat (Triticum aestivum); test: Test B pre-/postemergence
From the text: as §1, §2

soybean (Glycine max) = test: Test B pre-/postemergence
From the text: as §1, §2

[3] = test system: giant foxtail (Setaria faberii); test: Test B pre-/postemergence
From the text: as §1, §2

corn (Zea mays) = test: Test B pre-/postemergence
From the text: as §1, §2

[4] = test system: velvetleaf (Abutilon theophrasti); test: Test B pre-/postemergence
From the text: as §1, §2

[5] = test system: cocklebur (Xanthium strumarium); test: Test B pre-/postemergence
From the text: as §1, §2

[6] = test system: bedstraw (Galium aparine); test: Test B pre-/postemergence
From the text: as §1, §2

wild oat (Avena fatua) = test: Test B pre-/postemergence
From the text: as §1, §2

[7] = test system: pigweed (Amaranthus retroflexus); test: Test B pre-/postemergence
From the text: as §1, §2

[8] = test system: sugar beet (Beta vulgaris); test: Test B pre-/postemergence
From the text: as §1, §2

[9] = test system: broadleaf signalgrass (Brachiaria decumbens); test: Test B pre-/postemergence
From the text: as §1, §2

[10] = test system: momingglory (Ipomoea hederacea); test: Test B pre-/postemergence
From the text: as §1, §2

[11] = test system: blackgrass (Alopecurus myosuroides); test: Test B pre-/postemergence
From the text: as §1, §2

[12] = test system: bamyardgrass (Echinochloa crus-galli); test: Test B flood test
Procedure: as §2

rice (Oryza sativa) = test: Test B flood test
Procedure: as §2

[13] = test system: duck salad (Heteranthera limosa); test: Test B flood test
Procedure: as §2

[14] = test system: smallflower flatsedge (Cyperus difformis); test: Test B flood test
Procedure: as §2

[15] = Preemergence, Rate 62 g/ha, scale of 0 to 10
[16] = Rate 62 g/ha, Postemergence (flood test)
[17] = Rate 125 g/ha, Postemergence section (flood test species)
[18] = Rate 250 g/ha, Postemergence (flood test species)

## CCc1cnc(-n2ccc(C(F)(F)F)n2)nc1C(=O)c1cccc(C#N)c1 [Compound 72]
[1]; [15]
  Plant response rating, Crabgrass: 6
[1]; Rate 62 g/ha, Postemergence
  Crabgrass plant response rating: 4
[1]; Rate 125 g/ha, Postemergence
  Crabgrass plant response rating: 6
[1]; Rate 125 g/ha, Preemergence
  Plant response rating, Crabgrass: 9
[1]; Rate 250 g/ha, Postemergence
  Plant response rating, Crabgrass: 8
[1]; Rate 250 g/ha, Preemergence
  Plant response rating, Crabgrass: 9
Rape (Brassica napus); [15]
  Plant response rating, Rape: 4
Rape (Brassica napus); Rate 62 g/ha, Postemergence
  Rape plant response rating: 3
Rape (Brassica napus); Rate 125 g/ha, Postemergence
  Rape plant response rating: 7
Rape (Brassica napus); Rate 125 g/ha, Preemergence
  Plant response rating, Rape: 5
Rape (Brassica napus); Rate 250 g/ha, Postemergence
  Plant response rating, Rape: 7
Rape (Brassica napus); Rate 250 g/ha, Preemergence
  Plant response rating, Rape: 9
[2]; [15]
  Plant response rating, Wheat: 0
[2]; Rate 62 g/ha, Postemergence
  Wheat plant response rating: 3
[2]; Rate 125 g/ha, Postemergence
  Wheat plant response rating: 3
[2]; Rate 125 g/ha, Preemergence
  Plant response rating, Wheat: 0
[2]; Rate 250 g/ha, Postemergence
  Plant response rating, Wheat: 4
[2]; Rate 250 g/ha, Preemergence
  Plant response rating, Wheat: 3
Soybean (Glycine max); [15]
  Plant response rating, Soybean: 0
Soybean (Glycine max); Rate 62 g/ha, Postemergence
  Soybean plant response rating: 2
Soybean (Glycine max); Rate 125 g/ha, Postemergence
  Soybean plant response rating: 2
Soybean (Glycine max); Rate 125 g/ha, Preemergence
  Plant response rating, Soybean: 3
Soybean (Glycine max); Rate 250 g/ha, Postemergence
  Plant response rating, Soybean: 5
Soybean (Glycine max); Rate 250 g/ha, Preemergence
  Plant response rating, Soybean: 3
[3]; [15]
  Plant response rating, Giant foxtail: 5
[3]; Rate 62 g/ha, Postemergence
  Giant foxtail plant response rating: 5
[3]; Rate 125 g/ha, Postemergence
  Giant foxtail plant response rating: 6
[3]; Rate 125 g/ha, Preemergence
  Plant response rating, Giant foxtail: 5
[3]; Rate 250 g/ha, Postemergence
  Plant response rating, Giant foxtail: 7
[3]; Rate 250 g/ha, Preemergence
  Plant response rating, Giant foxtail: 7
Corn (Zea mays); [15]
  Plant response rating, Corn: 3
Corn (Zea mays); Rate 62 g/ha, Postemergence
  Corn plant response rating: 2
Corn (Zea mays); Rate 125 g/ha, Postemergence
  Corn plant response rating: 3
Corn (Zea mays); Rate 125 g/ha, Preemergence
  Plant response rating, Corn: 4
Corn (Zea mays); Rate 250 g/ha, Postemergence
  Plant response rating, Corn: 5
Corn (Zea mays); Rate 250 g/ha, Preemergence
  Plant response rating, Corn: 5
[4]; [15]
  Plant response rating, Velvetleaf: 3
[4]; Rate 62 g/ha, Postemergence
  Velvetleaf plant response rating: 2
[4]; Rate 125 g/ha, Postemergence
  Velvetleaf plant response rating: 3
[4]; Rate 125 g/ha, Preemergence
  Plant response rating, Velvetleaf: 4
[4]; Rate 250 g/ha, Postemergence
  Plant response rating, Velvetleaf: 5
[4]; Rate 250 g/ha, Preemergence
  Plant response rating, Velvetleaf: 7
[5]; [15]
  Plant response rating, Cocklebur: 0
[5]; Rate 62 g/ha, Postemergence
  Cocklebur plant response rating: 3
[5]; Rate 125 g/ha, Postemergence
  Cocklebur plant response rating: 4
[5]; Rate 125 g/ha, Preemergence
  Plant response rating, Cocklebur: 0
[5]; Rate 250 g/ha, Postemergence
  Plant response rating, Cocklebur: 4
[5]; Rate 250 g/ha, Preemergence
  Plant response rating, Cocklebur: 0
[6]; [15]
  Plant response rating, Bedstraw: 0
[6]; Rate 250 g/ha, Postemergence
  Plant response rating, Bedstraw: 4
[6]; Rate 250 g/ha, Preemergence
  Plant response rating, Bedstraw: 5
Wild oat (Avena fatua); [15]
  Plant response rating, Wild oats: 1
Wild oat (Avena fatua); Rate 62 g/ha, Postemergence
  Wild oats plant response rating: 2
Wild oat (Avena fatua); Rate 125 g/ha, Postemergence
  Wild oats plant response rating: 2
Wild oat (Avena fatua); Rate 125 g/ha, Preemergence
  Plant response rating, Wild oats: 2
Wild oat (Avena fatua); Rate 250 g/ha, Postemergence
  Plant response rating, Wild oats: 4
Wild oat (Avena fatua); Rate 250 g/ha, Preemergence
  Plant response rating, Wild oats: 3
[7]; [15]
  Plant response rating, Redroot pigweed: 7
[7]; Rate 62 g/ha, Postemergence
  Redroot pigweed plant response rating: 8
[7]; Rate 125 g/ha, Postemergence
  Redroot pigweed plant response rating: 9
[7]; Rate 125 g/ha, Preemergence
  Plant response rating, Redroot pigweed: 9
[7]; Rate 250 g/ha, Postemergence
  Plant response rating, Redroot pigweed: 9
[7]; Rate 250 g/ha, Preemergence
  Plant response rating, Redroot pigweed: 9
[8]; [15]
  Plant response rating, Sugarbeets: 8
[8]; Rate 62 g/ha, Postemergence
  Sugarbeets plant response rating: 9
[8]; Rate 125 g/ha, Postemergence
  Sugarbeets plant response rating: 9
[8]; Rate 125 g/ha, Preemergence
  Plant response rating, Sugarbeets: 10
[8]; Rate 250 g/ha, Postemergence
  Plant response rating, Sugarbeets: 9
[8]; Rate 250 g/ha, Preemergence
  Plant response rating, Sugarbeets: 10
[9]; Rate 62 g/ha, Postemergence
  B. signalgrass plant response rating: 2
[9]; Rate 62 g/ha, Preemergence
  B. signalgrass plant response rating: 1
[9]; Rate 125 g/ha, Postemergence
  B. signalgrass plant response rating: 4
[9]; Rate 125 g/ha, Preemergence
  Plant response rating, B. signalgrass: 2
[9]; Rate 250 g/ha, Postemergence
  Plant response rating, B. signalgrass: 6
[9]; Rate 250 g/ha, Preemergence
  Plant response rating, B. signalgrass: 7
[10]; [15]
  Plant response rating, Morningglory: 2
[10]; Rate 125 g/ha, Postemergence
  Morningglory plant response rating: 4
[10]; Rate 125 g/ha, Preemergence
  Plant response rating, Morningglory: 3
[10]; Rate 250 g/ha, Postemergence
  Plant response rating, Morningglory: 4
[10]; Rate 250 g/ha, Preemergence
  Plant response rating, Morningglory: 8
[11]; [15]
  Plant response rating, Blackgrass: 1
[11]; Rate 62 g/ha, Postemergence
  Blackgrass plant response rating: 4
[11]; Rate 125 g/ha, Postemergence
  Blackgrass plant response rating: 5
[11]; Rate 125 g/ha, Preemergence
  Plant response rating, Blackgrass: 1
[11]; Rate 250 g/ha, Postemergence
  Plant response rating, Blackgrass: 5
[11]; Rate 250 g/ha, Preemergence
  Plant response rating, Blackgrass: 4
[12]; [16]
  Barnyardgrass plant response rating: 2
[12]; [17]
  Barnyardgrass plant response rating: 3
[12]; [18]
  Plant response rating, Barnyardgrass: 6
Rice (Oryza sativa); [16]
  Rice plant response rating: 0
Rice (Oryza sativa); [17]
  Rice plant response rating: 0
Rice (Oryza sativa); [18]
  Plant response rating, Rice: 2
[13]; [16]
  Ducksalad plant response rating: 2
[13]; [17]
  Ducksalad plant response rating: 2
[13]; [18]
  Plant response rating, Ducksalad: 3
[14]; [16]
  S. Flatsedge plant response rating: 3
[14]; [17]
  S. Flatsedge plant response rating: 3
[14]; [18]
  Plant response rating, S. Flatsedge: 4

— patent publication US6525001B1, “Substituted pyrimidine and pyridine herbicides” (Mid-American Commercialization Corporation, priority 1997, dated 2003)
